Measured values: US20070026478A1, “Hemiasterlin affinity probes and their uses” (WYETH, priority 2002, published 2007)

Experiments:
KB cells = experiment: Cell proliferation assay in tissue culture (SRB); format: cell-based; settings: Homo sapiens, KB, 72 h
Experimental: Cell proliferation studies were performed according to procedures described by Loganzo et al. (Cancer Res. 2003, 63:1838-1845). Briefly, KB cells were plated in 96-well plates in 100 μL media at densities pre-determined to produce 60-90% confluence at the time of analysis. Compounds, which were serially diluted into media as 2× stocks, were added to cells in duplicate. After 72 hours of incubation, cell survival was assayed by the SRB assay as described (Rabindran et al., C. Cancer Res. 1998, 58:5850-5858). IC50 values (i.e. the concentration of drug needed to inhibit cell growth by 50%) were used to evaluate drug potency.

bovine MAP-rich tubulin = molecular target: T1, bovine MAP-rich tubulin (Bos taurus, UniProt P81947+Q6B856); experiment: Tubulin polymerization assay in a cell-free system; format: biochemical; settings: 0.3 μM compound
T1 construct: MAP-rich bovine brain tubulin (99% purity), Hela cell tubulin (90% purity); purchased Cytoskeleton (Denver, Colo.); host or cells: bovine brain
T1 sequence (P81947 whole entry): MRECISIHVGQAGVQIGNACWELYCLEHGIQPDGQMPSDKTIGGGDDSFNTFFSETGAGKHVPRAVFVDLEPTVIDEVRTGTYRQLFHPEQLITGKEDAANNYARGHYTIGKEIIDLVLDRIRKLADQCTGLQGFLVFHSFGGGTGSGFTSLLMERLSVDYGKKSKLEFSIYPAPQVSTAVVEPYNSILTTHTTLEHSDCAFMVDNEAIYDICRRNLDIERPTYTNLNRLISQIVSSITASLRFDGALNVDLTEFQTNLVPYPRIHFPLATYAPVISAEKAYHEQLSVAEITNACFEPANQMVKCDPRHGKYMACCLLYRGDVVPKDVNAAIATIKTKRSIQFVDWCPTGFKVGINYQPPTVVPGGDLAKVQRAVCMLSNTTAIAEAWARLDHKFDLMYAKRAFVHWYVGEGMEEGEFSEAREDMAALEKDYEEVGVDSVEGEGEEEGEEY
T1 sequence (Q6B856 whole entry): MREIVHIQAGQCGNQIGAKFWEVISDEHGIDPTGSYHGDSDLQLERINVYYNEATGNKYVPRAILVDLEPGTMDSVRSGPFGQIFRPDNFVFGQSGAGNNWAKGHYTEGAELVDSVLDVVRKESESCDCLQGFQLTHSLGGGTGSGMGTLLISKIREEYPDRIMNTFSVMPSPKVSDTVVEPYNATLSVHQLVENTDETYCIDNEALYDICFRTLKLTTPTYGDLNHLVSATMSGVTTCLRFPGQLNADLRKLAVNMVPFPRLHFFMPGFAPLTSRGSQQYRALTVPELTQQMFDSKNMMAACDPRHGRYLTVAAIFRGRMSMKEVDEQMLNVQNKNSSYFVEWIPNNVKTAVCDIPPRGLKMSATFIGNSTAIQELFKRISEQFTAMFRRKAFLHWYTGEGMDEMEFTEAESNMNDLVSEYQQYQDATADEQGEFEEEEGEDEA
Experimental: In vitro tubulin polymerization assays were performed according to procedures that have been described elsewhere (Loganzo et al., Cancer Res. 2003, 63:1838-1845). Briefly, bovine MAP-rich tubulin (final concentration 1.5 mg/mL) was dissolved in cold PEM buffer containing 1 mM GTP (GPEM) and centrifuged at 12,000×g for 10 minutes at 4° C. The tubulin solution (100 μL/well) was added rapidly to wells of a low-volume, 96-well plate already containing duplicate aliquots (10 μL) of test compounds in GPEM. Final compound concentrations were 0.3 μM. Control wells contained the same final concentration of DMSO (0.3%). After initiation of the reaction, absorbance at 340 nm was measured every minute for 60 minutes at 24° C. using a SpectraMax Plus plate reader (Molecular Devices, Sunnyvale, Calif.). An increase in absorbance over time indicated an increase in turbidity resulting from tubulin polymerization.

bovine brain tubulin [1] = molecular target: T2, bovine brain tubulin (Bos taurus, UniProt P81947+Q6B856); experiment: Radiolabeled Probe 1 binding by centrifugal gel filtration; settings: 0.5 μM tubulin, 0.005-5 μM radiolabeled Probe 1, room temperature; read-out: apparent KD, radiolabeled probe technique
T2 construct: MAP-rich bovine brain tubulin (99% purity), Hela cell tubulin (90% purity); purchased Cytoskeleton (Denver, Colo.); host or cells: bovine brain
T2 sequence (P81947 whole entry): as the sequence (P81947 whole entry) above
T2 sequence (Q6B856 whole entry): as the sequence (Q6B856 whole entry) above
Experimental: Binding of Probe 1 to bovine brain tubulin was also assessed by incubating 0.5 μM tubulin with 0.005-5 μM radiolabeled Probe 1 both in the presence and in the absence of 5 μM non-radiolabeled probe 1 as a competitor. Incubations were performed for 30 minutes at room temperature in PEM buffer. Binding was measured using centrifugal gel filtration on Sephadex G-50 (Microspin G-50) as described (Bai et al., Cancer Res. 1996, 56:4398-4406). Spin columns (Amersham Biosciences, Piscataway, N.J.) were centrifugated for 1 minute at 2000 rpm in a microcentrifuge immediately prior to use, and samples applied in 50 μL total volume, followed by a 2 minute centrifugation at the same speed. The amount of probe 1 bound to tubulin was quantitated by measuring the radioactivity within aliquots collected after centrifugation. The KD value, representing 50% of specific binding, was calculated from the curve generated by subtracting the amount of […].

bovine brain tubulin [2] = molecular target: T2, bovine brain tubulin; experiment: Reversible binding affinity assay (tubulin fluorescence)
Experimental: The affinity of both HTI-286 and of non-radiolabled Probe 1 and Probe 2, to bovine brain tubulin was determined by previously published methods (Krishnamurthy et al., Biochem., submitted). Briefly, 5 mg/mL […] tubulin prepared in PEM buffer was pre-incubated with buffer or varying concentrations of test agents in individual quartz cuvettes. The intrinsic tryptophan fluorescence of tubulin (excitation at 560 nm and maximal emission at 580 nm) was measured after pre-incubation for 90 minutes. The change in fluorescence intensity at 580 nm in the presence of compound was fitted to a quadratic equation to obtain apparent dissociation constants (KD) of the test agents.

α-tubulin = molecular target: T3, α-tubulin (Bos taurus, UniProt P81947); experiment: Subtilisin digestion of tubulin before or after labeling with Probe 1; format: biochemical, bovine
T3 construct: MAP-rich bovine brain tubulin (99% purity), Hela cell tubulin (90% purity); purchased Cytoskeleton (Denver, Colo.); host or cells: bovine brain
T3 sequence (P81947 whole entry): as the sequence (P81947 whole entry) above
T3 sequence (Q6B856 whole entry partner): as the sequence (Q6B856 whole entry) above
Experimental: FIGS. 6A-6C provide data for the digestion of tubulin by subtilisin before or after photoaffinity labeling with Probe 1. FIG. 6A diagrams the predicted subtilisin cleavage site and cleavage products for α-tubulin. FIG. 6B provides Coomassie staining (top) and fluorographic (bottom) images of fragments photolabeled with Probe 1 and exposed to subtilisin as follows: Tubulin (5 μg) was incubed without (Lanes 1 and 4) or with 0.2 μg subtilisin for 60 minutes at 30° C. and then photolabeled with 0.25 μM [^3H]-Probe 1 (Lane 2) according to conditions specified in Section 6.1.11. Alternatively, photolabeling was done before subtilisin digestions (Lane 3). In both cases samples were then separated by SDS-PAGE. […] Again, samples were separated by SDS-PAGE.
Before or after incubating with 0.25 μM (0.36 μCi) [^3H]-Probe 1 for 30 minutes at room temperature and irradiating as described in Section 7.1.5, tubulin (5 μg) was digested under native conditions with subtilisin (0.2 μg) for 60 minutes at 30° C. Enzymatic digestions were stopped with 1 mM PMSF. After both digestion and labeling, samples were resolved by SDS-PAGE under conditions that allowed separation of α- and β-tubulin subunits. Gels were then fixed and stained with Coomassie blue from BioRad (Hercules, Calif.) and subjected to fluorography.

[3] = molecular target: T4, tubulin in KB-3-1 cell lysates (Homo sapiens, UniProt P07437+P68363); experiment: Probe 1 photolabeling in KB-3-1 cell lysates; format: binding; settings: 250 μM non-radiolabeled, 2.5 μM [3H]-probe 1, KB-3-1 cell lysates (50 μg)
T4 construct: a cytosolic preparation of KB-3-1 cell lysates (50 μg) or KB-3-1 cells (40,000 cells) were used in the place of purified tubulin; endogenous in cells; host or cells: KB-3-1 cells (cytosolic supernatant at 100,000 x g, or whole cells)
T4 sequence (P68363 whole entry): as the sequence (P81947 whole entry) above
T4 sequence (P07437 whole entry): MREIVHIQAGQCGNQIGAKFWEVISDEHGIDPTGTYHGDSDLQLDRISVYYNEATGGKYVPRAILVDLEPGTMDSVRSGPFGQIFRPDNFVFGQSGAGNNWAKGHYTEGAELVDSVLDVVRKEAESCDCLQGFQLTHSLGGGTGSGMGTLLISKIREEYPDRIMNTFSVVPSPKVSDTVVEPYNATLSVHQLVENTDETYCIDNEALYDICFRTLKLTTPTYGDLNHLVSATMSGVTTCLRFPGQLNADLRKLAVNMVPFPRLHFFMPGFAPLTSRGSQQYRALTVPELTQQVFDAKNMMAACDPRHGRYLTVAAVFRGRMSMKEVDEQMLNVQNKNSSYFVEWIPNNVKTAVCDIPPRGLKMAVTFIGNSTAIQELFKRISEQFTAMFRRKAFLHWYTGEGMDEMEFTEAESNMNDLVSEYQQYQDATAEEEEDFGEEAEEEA
Experimental: FIG. 1B illustrates the labeling of KB-3-1 cell lysates (50 μg) (lanes 1 and 2) and purified bovine brain (BB) tubulin (5 μg) (lanes 3 and 4) incubated for 30 minutes at room temperature with 2.5 μM [^3H]-probe 1. Samples in lanes 1 and 3 were pre-incubated with 250 μM non-radiolabeled probe 1 prior to incubation with radiolabeled materials. Samples were analyzed as described in FIG. 1A. Lanes marked “M” are molecular weight markers in kDa.
Alternatively, a cytosolic preparation of KB-3-1 cell lysates (50 μg) or KB-3-1 cells (40,000 cells) were used in the place of purified tubulin above. The supernatant of mechanically disrupted cells centrifuged at 100,000×g was used as a cytosolic preparation. K-3-1 cells were prepared by growing KB-3-1 cells in a 96-well plate and rinsing them with serum free medium. For experiments with whole cells, 250 μM HTI-286 was used as the competitor molecule during pre-incubation at 37° C. for 15 minutes.

Compound: CN[C@H](C(=O)N[C@H](C(=O)N(C)[C@H](/C=C(\C)C(=O)O)C(C)C)C(C)(C)C)C(C)(C)c1ccc(C(=O)c2ccccc2)cc1 [Probe 1, 4-benzoyl-N,β,β-trimethyl-L-phenylalanyl-N^1-[(1S,2E)-3-carboxy-1-isopropylbut-2-enyl]-N^1,3-dimethyl-L-valinamide]
- IC50 (KB cells): 1.8 nM
- inhibition at 0.3 µM (bovine MAP-rich tubulin): 88%
- Kd (bovine brain tubulin [1]): 350 nM
- Kd (bovine brain tubulin [2]; Table 1, binding to bovine brain tubulin, read-out: KD): 200 to 800 nM
- Kd (bovine brain tubulin [2]; rhodamine-labeled tubulin, 90 minutes pre-incubation, read-out: apparent binding constant (KD), fluorescence method): 500 nM
- effect on subtilisin digestion of α-tubulin (α-tubulin; 0.25 μM radiolabeled): partially inhibits the digestion of α-tubulin
- effect on subtilisin digestion of α-tubulin (α-tubulin; 100 or 250 μM non-radiolabeled, β-tubulin is completely digested): completely blocks
- inhibition of radiolabeled Probe 1 binding in cell lysates [3]: can inhibit the binding of radiolabled Probe 1
